pIC50: −log10 of the molar value.
What was measured:
[1] = molecular target: human SOS1 (nucleotide exchange of K-Ras^G12C) (Homo sapiens, UniProt Q07889); test: Biochemical assay 2: K-Ras^G12C activation assay by hSOS1 at high GTP concentration (HTRF); settings: high GTP; for pIC50: read-out: Assay 2 (KRAS-Activation by SOS high GTP) activity expressed as IC50; for inhibition at 20 µM: read-out: Assay 2 (KRAS-Activation by SOS high GTP) activity expressed as % inhibition at 20 μM
[2] = molecular target: human SOS1 (loading of human K-Ras^G12C-GDP with fluorescent GTP-analog) (Homo sapiens, UniProt Q07889); test: Biochemical assay 3: K-Ras^G12C activation assay by hSOS1 (HTRF); settings: no GTP; for pIC50: read-out: Assay 3 (KRAS-Activation by SOS no GTP) activity expressed as IC50; for inhibition at 20 µM: read-out: Assay 3 (KRAS-Activation by SOS no GTP) activity expressed as % inhibition at 20 μM

Structure (SMILES) | pIC50 [1] | pIC50 [2] | inhibition at 20 µM [1] | inhibition at 20 µM [2]
COc1cc2nc(C)nc(NC(C)c3cc(F)cc4[nH]ncc34)c2cc1OC (centres unmarked) [Example 6, N-[1-(6-fluoro-1H-indazol-4-yl)ethyl]-6,7-dimethoxy-2-methylquinazolin-4-amine] | 5.73 | 5.30 | – | –
COc1cc2nc(C)nc(NC(C)c3ccc(-c4cccc5[nH]ncc45)s3)c2cc1OC (centres unmarked) [Example 247, N-{1-[5-(1H-indazol-4-yl)thiophen-2-yl]ethyl}-6,7-dimethoxy-2-methylquinazolin-4-amine] | 6.06 | 5.57 | – | –
COC(=O)c1ccccc1-c1ccc(C(C)Nc2nc(C)nc3cc(OC)c(OC)cc23)s1 (centres unmarked) [Example 178, methyl 2-(5-{1-[(6,7-dimethoxy-2-methylquinazolin-4-yl)amino]ethyl}thiophen-2-yl)benzoate] | 5.29 | 5.15 | – | –
COc1cc2nc(C)nc(N[C@H](C)c3ccccc3)c2cc1OC [Example 206, 6,7-dimethoxy-2-methyl-N-[(1R)-1-phenylethyl]quinazolin-4-amine] | 6.00 | 5.76 | – | –
COc1cc2nc(C)nc(N[C@H](C)c3cccc(C)c3)c2cc1OC [Example 190, 6,7-dimethoxy-2-methyl-N-[(1R)-1-(3-methylphenyl)ethyl]quinazolin-4-amine] | 6.82 | 6.26 | – | –
COc1cc2nc(C)nc(NC(C)c3cccc4cccnc34)c2cc1OC (centres unmarked) [Example 217, 6,7-dimethoxy-2-methyl-N-[1-(quinolin-8-yl)ethyl]quinazolin-4-amine] | – | – | 50% | 45%
COc1cc2nc(C)nc(NC(C)c3cccc4cnn(C)c34)c2cc1OC (centres unmarked) [Example 10, 6,7-dimethoxy-2-methyl-N-[1-(1-methyl-1H-indazol-7-yl)ethyl]quinazolin-4-amine] | 5.90 | 5.21 | – | –
COc1cc2nc(C)nc(N[C@H](C)c3ccc(C4=CCN(C)CC4)cc3)c2cc1OC [Example 201, 6,7-dimethoxy-2-methyl-N-{(1R)-1-[4-(1-methyl-1,2,3,6-tetrahydropyridin-4-yl)phenyl]ethyl}quinazolin-4-amine] | – | – | 20% | 50%
COc1cc2nc(C)nc(NC(C)c3ccc(-c4ccccc4CN4CCCC4)s3)c2cc1OC (centres unmarked) [Example 184, 6,7-dimethoxy-2-methyl-N-[1-{5-[2-(pyrrolidin-1-ylmethyl)phenyl]thiophen-2-yl}ethyl]quinazolin-4-amine] | 6.97 | 6.91 | – | –
COc1cc2nc(C)nc(NC(C)c3ccc(-c4ccccc4CN4CC[C@H](F)C4)s3)c2cc1OC (stereo partly drawn) [Example 211, N-{1-[5-(2-{[(3S)-3-fluoropyrrolidin-1-yl]methyl}phenyl)thiophen-2-yl]ethyl}-6,7-dimethoxy-2-methylquinazolin-4-amine] | 6.53 | 6.63 | – | –
COc1cc2nc(C)nc(N[C@H](C)c3cccc(-c4cnn(CCN5CCCC5)c4)c3)c2cc1OC [Example 257, 6,7-dimethoxy-2-methyl-N-[(1R)-1-(3-{1-[2-(pyrrolidin-1-yl)ethyl]-1H-pyrazol-4-yl}phenyl)ethyl]quinazolin-4-amine] | 6.12 | 6.07 | – | –
COc1cc2nc(C)nc(NC(C)c3ccc(-c4ccc(C(N)=O)cc4)s3)c2cc1OC (centres unmarked) [Example 242, 4-(5-{1-[(6,7-dimethoxy-2-methylquinazolin-4-yl)amino]ethyl}thiophen-2-yl)benzamide] | 5.82 | 5.52 | – | –
COc1cc2nc(C)nc(NC(C)c3cccc4cccnc34)c2cc1OC (single isomer, unassigned; enantiomer 1) [Example 230, 6,7-dimethoxy-2-methyl-N-[1-(quinolin-8-yl)ethyl]quinazolin-4-amine, Enantiomer 1] | 5.17 | 4.88 | – | –
COc1cc2nc(C)nc(N[C@H](C)c3cccc(Br)c3)c2cc1OC [Example 191, N-[(1R)-1-(3-bromophenyl)ethyl]-6,7-dimethoxy-2-methylquinazolin-4-amine] | 6.61 | 6.42 | – | –
COc1cc2nc(C)nc(NC(C)c3ccc(-c4ccccc4CN)s3)c2cc1OC (centres unmarked) [Example 252, N-[1-{5-[2-(aminomethyl)phenyl]thiophen-2-yl}ethyl]-6,7-dimethoxy-2-methylquinazolin-4-amine] | 7.13 | 6.99 | – | –
COc1cc2nc(C)nc(NC(C)c3ccc(-c4cc[nH]n4)s3)c2cc1OC (centres unmarked) [Example 222, 6,7-dimethoxy-2-methyl-N-{1-[5-(1H-pyrazol-3-yl)thiophen-2-yl]ethyl}quinazolin-4-amine] | 5.35 | 4.87 | – | –
C=C(C)c1ccc([C@@H](C)Nc2nc(C)nc3cc(OC)c(OC)cc23)cc1 [Example 203, 6,7-dimethoxy-2-methyl-N-{(1R)-1-[4-(prop-1-en-2-yl)phenyl]ethyl}quinazolin-4-amine] | 5.86 | 5.47 | – | –

Structure (SMILES) | pIC50 [1] | pIC50 [2] | inhibition at 20 µM [1] | inhibition at 20 µM [2]
COc1cc2nc(C)nc(NC(C)c3cc(C)c(Br)s3)c2cc1OC (centres unmarked) [Example 183, N-[1-(5-bromo-4-methylthiophen-2-yl)ethyl]-6,7-dimethoxy-2-methylquinazolin-4-amine] | 5.38 | 5.04 | – | –
COc1cc2nc(C)nc(N[C@H](C)c3cccc(-c4ccccc4)c3)c2cc1OC [Example 193, N-[(1R)-1-(biphenyl-3-yl)ethyl]-6,7-dimethoxy-2-methylquinazolin-4-amine] | 6.39 | 6.09 | – | –
COc1cc2nc(C)nc(NC(C)c3ccc(-c4ccccc4CN4CC5(COC5)C4)s3)c2cc1OC (centres unmarked) [Example 182, 6,7-di methoxy-2-methyl-N-[1-{5-[2-(2-oxa-6-azaspiro[3.3]hept-6-ylmethyl)phenyl]thiophen-2-yl}ethyl]quinazolin-4-amine] | 6.91 | 6.92 | – | –
COc1cc2nc(C)nc(NC(C)c3ccc(-c4ccccc4C(N)=O)s3)c2cc1OC (centres unmarked) [Example 240, 2-(5-{1-[(6,7-dimethoxy-2-methylquinazolin-4-yl)amino]ethyl}thiophen-2-yl)benzamide] | 5.50 | 5.12 | – | –
COc1cc2nc(C)nc(NC(C)c3cc(Br)cc4c3OCC4)c2cc1OC (centres unmarked) [Example 214, N-[1-(5-bromo-2,3-dihydro-1-benzofuran-7-yl)ethyl]-6,7-dimethoxy-2-methylquinazolin-4-amine] | 5.40 | 4.87 | – | –
COc1cc2nc(C)nc(N[C@H](C)c3cccc(Cl)c3)c2cc1OC [Example 2, N-[(1R)-1-(3-chlorophenyl)ethyl]-6,7-dimethoxy-2-methylquinazolin-4-amine] | 6.68 | 6.27 | – | –
COc1cc2nc(C)nc(NC(C)c3ccc(-c4ccccc4N)s3)c2cc1OC (centres unmarked) [Example 243, N-{1-[5-(2-aminophenyl)thiophen-2-yl]ethyl}-6,7-dimethoxy-2-methylquinazolin-4-amine] | 6.49 | 6.38 | – | –
COc1cc2nc(C)nc(N[C@H](C)c3cccc(S(C)(=O)=O)c3)c2cc1OC [Example 198, 6,7-dimethoxy-2-methyl-N-{(1R)-1-[3-(methylsulfonyl)phenyl]ethyl}quinazolin-4-amine] | 6.29 | 5.96 | – | –
COc1cc2nc(C)nc(NC(C)c3ccc4nsnc4c3)c2cc1OC (centres unmarked) [Example 229, N-[1-(2,1,3-benzothiadiazol-5-yl)ethyl]-6,7-dimethoxy-2-methylquinazolin-4-amine] | 5.11 | – | – | 29%
COc1cc2nc(C)nc(NC(C)c3ccc(-c4ccccc4CN4CCC(F)(F)C4)s3)c2cc1OC (centres unmarked) [Example 223, N-[1-(5-{2-[(3,3-difluoropyrrolidin-1-yl)methyl]phenyl}thiophen-2-yl)ethyl]-6,7-dimethoxy-2-methylquinazolin-4-amine] | 5.25 | 5.14 | – | –
COc1cc2nc(C)nc(NC(C)c3ccc(-c4cnn(CCO)c4)s3)c2cc1OC (centres unmarked) [Example 218, 2-[4-(5-{1-[(6,7-dimethoxy-2-methylquinazolin-4-yl)amino]ethyl}thiophen-2-yl)-1H-pyrazol-1-yl]ethanol] | 5.86 | 5.42 | – | –
COc1cc2nc(C)nc(NC(C)c3cccs3)c2cc1OC (centres unmarked) [Example 207, 6,7-dimethoxy-2-methyl-N-[1-(thiophen-2-yl)ethyl]quinazolin-4-amine] | 5.64 | 4.91 | – | –
COc1cc2nc(C)nc(N[C@H](C)c3cccc(C4CC4)c3)c2cc1OC [Example 204, N-[(1R)-1-(3-cyclopropylphenyl)ethyl]-6,7-dimethoxy-2-methylquinazolin-4-amine] | 6.58 | 6.19 | – | –
COc1cc2nc(C)nc(NC(C)c3ccc(-c4ccccc4CN4CCC(O)C4)s3)c2cc1OC (centres unmarked) [Example 210, 1-[2-(5-{1-[(6,7-dimethoxy-2-methylquinazolin-4-yl)amino]ethyl}thiophen-2-yl)benzyl]pyrrolidin-3-ol] | 6.96 | 7.00 | – | –
COc1cc2nc(C)nc(NC(C)c3cccc4ccoc34)c2cc1OC (centres unmarked) [Example 4, N-[1-(1-benzofuran-7-yl)ethyl]-6,7-dimethoxy-2-methylquinazolin-4-amine] | 6.61 | 6.32 | – | –
COc1cc2nc(C)nc(NC(C)c3cccc(-c4nn[nH]n4)c3)c2cc1OC (centres unmarked) [Example 216, 6,7-dimethoxy-2-methyl-N-{1-[3-(2H-tetrazol-5-yl)phenyl]ethyl}quinazolin-4-amine] | 4.77 | 4.79 | – | –
COc1cc2nc(C)nc(NC(C)c3ccc(-c4ccccc4CN4CCC(N(C)C)C4)s3)c2cc1OC (centres unmarked) [Example 238, N-{1-[5-(2-{[3-(dimethylamino)pyrrolidin-1-yl]methyl}phenyl)thiophen-2-yl]ethyl}-6,7-dimethoxy-2-methylquinazolin-4-amine] | 6.66 | 6.67 | – | –

From US20240083857A1, “2-Methyl-Quinazolines” (Bayer Pharma Aktiengesellschaft, priority 2017, published 2024)
